Results from patent US11773146B2, “Disruption of the WAVE3 protein complex for suppression of invasion and metastasis” (UNIVERSITY OF GEORGIA RESEARCH FOUNDATION, INC., priority 2015, dated 2023).
Entries after “also recorded” stand apart in the source; their conditions may differ. Bridges are numbered along the chain shown (N, C = ends). Where no end group is shown, it is not given here. [ ]: non-standard residue; d: D form. S5 = C=CCCC[C@](C)(N)C(=O)O

Experiments:
[1] = target: T1, WASF3 complex (Homo sapiens); test: IP of WASF3 complex after WANT3 or WAHM1 (phosphoactivation, RAC1 engagement); assay type: cell-based; details: MDA-MB-231 cells
T1 construct: endogenous in cells; host or cells: MDA-MB-231
T1 sequence (Q7L576 whole entry, one chain of several): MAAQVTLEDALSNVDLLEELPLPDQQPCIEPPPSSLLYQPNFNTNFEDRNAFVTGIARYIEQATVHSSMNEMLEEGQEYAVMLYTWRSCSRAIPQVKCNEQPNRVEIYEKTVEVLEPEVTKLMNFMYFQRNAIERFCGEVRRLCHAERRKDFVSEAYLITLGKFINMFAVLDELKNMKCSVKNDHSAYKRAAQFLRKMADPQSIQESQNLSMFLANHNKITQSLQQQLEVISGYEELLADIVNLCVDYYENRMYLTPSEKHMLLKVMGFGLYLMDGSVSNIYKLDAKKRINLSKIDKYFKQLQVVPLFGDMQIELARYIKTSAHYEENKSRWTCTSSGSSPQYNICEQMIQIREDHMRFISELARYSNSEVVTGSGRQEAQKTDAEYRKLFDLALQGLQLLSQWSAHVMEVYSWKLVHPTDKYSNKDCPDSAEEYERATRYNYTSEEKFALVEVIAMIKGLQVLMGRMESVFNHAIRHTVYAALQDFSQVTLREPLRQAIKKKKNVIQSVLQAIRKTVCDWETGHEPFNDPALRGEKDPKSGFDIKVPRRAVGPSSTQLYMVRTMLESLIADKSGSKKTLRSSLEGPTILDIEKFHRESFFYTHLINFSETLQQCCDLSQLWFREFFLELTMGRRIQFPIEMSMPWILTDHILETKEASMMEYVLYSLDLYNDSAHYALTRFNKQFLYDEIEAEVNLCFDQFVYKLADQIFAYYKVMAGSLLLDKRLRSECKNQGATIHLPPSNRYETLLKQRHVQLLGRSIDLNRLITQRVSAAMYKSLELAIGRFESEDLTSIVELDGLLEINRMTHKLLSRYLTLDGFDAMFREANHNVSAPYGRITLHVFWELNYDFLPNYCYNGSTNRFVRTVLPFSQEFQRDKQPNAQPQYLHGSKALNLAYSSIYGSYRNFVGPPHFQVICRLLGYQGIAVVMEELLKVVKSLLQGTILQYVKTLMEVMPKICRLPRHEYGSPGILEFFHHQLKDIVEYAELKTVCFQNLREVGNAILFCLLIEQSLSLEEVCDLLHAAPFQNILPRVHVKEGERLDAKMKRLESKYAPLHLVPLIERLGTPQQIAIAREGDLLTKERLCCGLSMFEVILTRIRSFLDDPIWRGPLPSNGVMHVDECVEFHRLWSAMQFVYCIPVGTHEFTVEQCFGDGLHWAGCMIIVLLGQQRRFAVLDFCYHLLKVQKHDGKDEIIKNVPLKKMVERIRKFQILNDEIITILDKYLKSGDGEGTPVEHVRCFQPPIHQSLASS
Text: (§1) MDA-MB-231, Hs578T and T47D breast cancer cell lines were obtained directly from American Type Culture Collection (Rockville, Md.). MDA-MB-231 and T47D and have been verified using SNP-CGH (Teng Y, et al. Int J Cancer 2011 129:2825-2835) for characteristic cytogenetic changes. The ATCC Cell Authentication Testing service confirmed the identity of Hs578T using STR DNA fingerprinting analysis. Standard cell culture, transient transfections, RT-PCR, western blotting, immunoprecipitation (IP), flow cytometry, Biotin-Avidin pulldown, lentiviral transduction, cell proliferation and Transwell invasion assays were carried out as described previously (Teng Y, et al. Int J Cancer 2011 129:2825-2835; Teng Y, et al. J Biol Chem 2012 287:10051-10059; Teng Y, et al. Carcinogenesis 2013 34:1994-1999).

MDA-MB-231 cells [2] = details: 37° C., after 7 days
Description: To evaluate the stability of these SPs, WANT3 was incubated in serum containing medium for varying lengths of time (1-7 days) at 37° C. and then this medium was added to MDA-MB-231 cells to evaluate the ability of the preincubated peptides to suppress invasion.

[3] = system: MDA-MB-231 and Hs578T cells; test: Cell proliferation, viability and toxicity with WANT3; assay type: cell-based
Text: as §1

MDA-MB-231 cells [4] = test: Transwell invasion assay (WANT peptides); assay type: cell-based
Text: There are currently no small molecules that target WASF3 function directly, but targeting the WRC may provide a means of suppressing invasion.

WASF3 = test: Western blot of WASF3 stability after WANT3; assay type: cell-based
Text: as §1

NCKAP1 = test: Western blot of NCKAP1 protein after WANT3; assay type: cell-based; details: 10 μM
Text: as §1

[5] = concentration range of 2.5-20 μM

## VLXRNAXHAVYK (VL[S5]RNA[S5]HAVYK-NH2; staple 3-7; not fully specified (N-terminus); also: FITC label (in alias), site not given here) [WANT3, WASF3-NCKAP1 Target stapled peptide, NCKAP1 peptide mimic; X is (S)-2-(4′-pentenyl)alanine]
[1]
  engagement of RAC1 with the WASF3 complex, WANT3 compared with WHAM1: more significant
  phosphoactivation of WASF3, WANT3 compared with WAHM1: more significantly
MDA-MB-231 cells [2]
  suppression of invasion after preincubation in serum-containing medium: residual effect on suppression of invasion
[3]; 10 μM
  cell proliferation: without affecting cell proliferation
  in vitro cell toxicity: minimal
[3]; [5]
  cell proliferation rate: does not affect
  viability: does not affect
MDA-MB-231 cells [4]
  suppression of invasion, WAHM1 compared with WANT3: comparable suppression of invasion
MDA-MB-231 cells [4]; final concentration of 10 μM
  invasion potential: highly significant suppression of invasion; also recorded: significantly suppresses
MDA-MB-231 cells [4]; high dose 20 μM compared with low dose
  invasion at increased concentration: greater suppression of invasion; also recorded: more remarkable reduction
WASF3
  concentration achieving maximal effect on WASF3 stability: 20 µM
WASF3; 10 μM, compared with scrambled peptide
  WASF3 stability / protein levels: significant destabilization of WASF3; also recorded: suppresses both WASF3 and NCKAP1 protein levels
WASF3; MDA-MB-231 cells
  destabilization of WASF3, WANT3 compared with WHAM1: more efficient in destabilizing WASF3
  dose dependence of WASF3 destabilization: suppresses WASF3 protein levels in a dose-dependent manner; also recorded: dose-dependent destabilization of the WASF3 protein
NCKAP1
  NCKAP1 protein levels: loss of the NCKAP1 protein; also recorded: suppresses both WASF3 and NCKAP1 protein levels
